For one data set, the system named is young cotton seedlings. Kind of data set: Ethylene-induced chlorophyll degradation in young cotton seedlings. In kind it is in vivo, cotton (Gossyium hirsutum barbadense L.). The following applies: for increase of chlorophyll content compared with the untreated control: ethylene 10 μL L^−1. On the procedure:
(1) Abscission-This is a very sensitive model system for studying the effects of plant hormones. Ethylene induces the process of abscission, while auxin delays it. In the laboratory the experimental system is based on plant organ explants, which include the abscission zone. Abscission is induced by exposure to ethylene and at the termination of the experiment the number of abscised organs, usually either leaf blades or petioles are counted and the fraction of abscission is calculated. In the case of fruit, the decrease in fruit retention force is analyzed. […] The plants or explants are then further exposed for 24 h to ethylene gas (5 to 20 μL L^-1). The plants or explants are then ventilated and incubated for the required time under controlled conditions. At the end of the experiment the percentage of abscission is determined. […] Plant material (whole plants, excised leaves or leaf discs) are pretreated. […] The plants or explants are then ventilated and incubated for the required time under controlled conditions. At the end of the experiment a dimethylsulfoxide (DMSO) extract of the plant tissue is prepared, and the chlorophyll content of the extract is determined by spectrophotometric analysis. The chlorophyll content is reported either on a fresh, dry weight basis, or on a surface area basis. (3) Epinasty-This is also one of the classical methods for studying ethylene effects in plants. The extent of ethylene-induced epinasty of leaves is determined by measuring the change of the angle between the petiole and the stem shoot or blade. After exposure of the intact plant to ethylene, the upright grown leaves bend downward. […] The plants are then ventilated and incubated for the required time under controlled conditions. The epinastic effect is expressed by measuring the degree values of the downward curvature between the blade and petiole (cotton, FIGS. 1-3) or between the blade and the stem (wheat, FIGS. 31 and 32). […] In this project the intact plants were grown in the greenhouse up to the spike […] stage I and II. […] Young Cotton Seedlings […] The content of chlorophyll in the leaf blades of the treated plants remained the same as in the untreated control (FIGS. 5 and 6).

The subject of data set [1] is mature cotton leaf explants. Kind of data set: Ethylene-induced petiole abscission of mature cotton leaf explants. In kind it is in vivo, cotton (Gossyium hirsutum barbadense L.). The following applies: for abscission: day 5. On the procedure:
(§1) (1) Abscission—This is a very sensitive model system for studying the effects of plant hormones. Ethylene induces the process of abscission, while auxin delays it. In the laboratory the experimental system is based on plant organ explants, which include the abscission zone. Abscission is induced by exposure to ethylene and at the termination of the experiment the number of abscised organs, usually either leaf blades or petioles are counted and the fraction of abscission is calculated. In the case of fruit, the decrease in fruit retention force is analyzed. In cotton, when WS-CPD (the ethylene-action antagonist herein disclosed) is tested, the whole plants or explants are pretreated by spraying with the antagonist, dissolved in a phosphate buffer solution (10-20 mM, pH 7.0) including 0.1% commercially available Kinetic™ as surfactant, and left to incubate for a predetermined time, usually between 6 and 24 h. The plants or explants are then further exposed for 24 h to ethylene gas (5 to 20 μL L^−1). The plants or explants are then ventilated and incubated for the required time under controlled conditions. At the end of the experiment the percentage of abscission is determined. (2) Chlorophyll degradation—This is a standard model for studying senescence. Plant material (whole plants, excised leaves or leaf discs) are pretreated. In cotton, tobacco and wheat, when WS-CPD is tested, the whole plants or explants are pretreated by spraying with the antagonist, dissolved in phosphate buffer solution (10-20 mM, pH 7.0) including 0.1% commercially available Kinetic™ surfactant, and left to incubate for a predetermined time, usually between 6 and 241. The plants or explants are then further exposed for 24 h to ethylene gas (1 to 100 μL L^−1), or sprayed with Ethephon™ (wheat; 250 to 750 μL L^−1). The plants or explants are then ventilated and incubated for the required time under controlled conditions. At the end of the experiment a dimethylsulfoxide (DMSO) extract of the plant tissue is prepared, and the chlorophyll content of the extract is determined by spectrophotometric analysis. The chlorophyll content is reported either on a fresh, dry weight basis, or on a surface area basis. (3) Epinasty—This is also one of the classical methods for studying ethylene effects in plants. The extent of ethylene-induced epinasty of leaves is determined by measuring the change of the angle between the petiole and the stem shoot or blade. After exposure of the intact plant to ethylene, the upright grown leaves bend downward. The increase in the angle values (degrees) between petiole and the stem is used as a measure of the effect of the ethylene. […]

In another data set the test system is tobacco seedlings. Kind of data set: Ethylene-induced leaf yellowing (senescence) of young tobacco seedlings. In kind it is in vivo, tobacco (Nicotiana tabacum var. 'Samsun'). The following applies: for ethylene-induced senescence (leaf yellowing): ethylene 10 μL L^−1. On the procedure: as §1, with “The plants or explants are then further exposed for 24 h to ethylene gas (1 to 100 μL L^−1), or sprayed with Ethephon™ (wheat; 250 to 750 μL L^−1). The plants or explants are then ventilated and incubated for the required time under controlled conditions.” left out, “The chlorophyll content is reported either on a fresh, dry weight basis, or on a surface area basis. (3) Epinasty—This is also one of the classical methods for studying ethylene effects in plants.” left out, “blade.” for “blade. After exposure of the intact plant to ethylene, the upright grown leaves bend downward. The increase in the angle values (degrees) between petiole and the stem is used as a measure of the effect of the ethylene.”

In another data set the test system is wheat seedlings. Kind of data set: Third leaf growth of young wheat seedlings exposed to ethylene. Type of data set: in vivo, wheat (Triticum turgidum var. 'Gdera').
For the next data set, the system named is wheat plants. Kind of data set: Wheat grain yield at harvest, greenhouse, sandy soil, natural conditions. Type of data set: in vivo, wheat (Triticum turgidum var. 'Gdera').
The nature of another data set: Solubility in water. Type of data set: physicochemical. The following applies: 25° C. On the procedure: WS-CPD is highly soluble in water at 25° C. (≧400 mg mL^−1), FIG. 63. Upon heating, decomposition without melting occurs, beginning at 265-270° C.

Where only a bound is given, the exact number is not on record here.

What is called solubility is the concentration that dissolves in the medium under given conditions. High values mean much dissolved substance, low ones little dissolved substance.

Take `O=C([O-])CCC1=CC1.[Na+]` [WS-CPD, 3-cyclopropyl-1-enyl-propanoic sodium salt]: the ethylene-induced chlorophyll degradation result with young cotton seedlings (WS-CPD 10 μg mL^−1 pretreatment, ethylene 10 μL L^−1 24 h) was “completely antagonized”; in the data set on young cotton seedlings (higher concentrations of WS-CPD (up to 300 μg mL^−1)) it was “less effective”. Further, the “increase of chlorophyll content compared with the untreated control” value was 20% with young cotton seedlings (WS-CPD 30 μg L^−1 (so in the source)) and 28% in the data set on young cotton seedlings (WS-CPD 100 μg L^−1 (so in the source)). The abscission percentage result in data set [1] (WS-CPD 90 μg mL^−1) was “slightly lower than that of the untreated air control”. Besides, the abscission in data set [1] (WS-CPD 10, 30 and 90 μg mL^−1) is given as 100%; in data set [1] (WS-CPD 240-480 μg mL^−1) it was 50%. For the same molecule, the decrease of abscission in data set [1] (WS-CPD 10 and 30 μg mL^−1, after 3 days of incubation, ethylene 10 μL L^−1) is given as 20%. Besides, the “ethylene-induced senescence (leaf yellowing)” value is “antagonized the ethylene-induced senescence only in mature leaves” in the data set with tobacco seedlings (WS-CPD 14 μg mL^−1) and “slightly effective” with tobacco seedlings (WS-CPD 127 μg mL^−1, young leaves). Moreover, the leaf yellowing result with tobacco seedlings (WS-CPD 14 to 127 μg mL^−1, ethylene 20 μL L^−1) is recorded as “very significantly inhibited”. Further, the “reversal of the inhibitory effect of ethylene on third leaf growth” value in the data set with wheat seedlings (WS-CPD 40 μg mL^−1, 1.6 ethylene) came out at 100%. Also, in the data set on wheat seedlings (WS-CPD 4 and 40 μg mL^−1 spray at day 10, ethylene 1.6 to 40 μg L^−1 (so in the source) 24 h later for two days), the “inhibitory effect of ethylene on third leaf growth” value is given as “effectively antagonized”. Also, in the data set with wheat plants (WS-CPD 120 μg mL^−1, two to four sprays at 8 to 10 days intervals), the “effect of repeating sprays after stage II on yield” value is given as “no advantage”. Moreover, the “grains weighting less than 35 mg/grain in the spikes of the treated plants” value in the data set with wheat plants (WS-CPD 120 μg mL^−1, untreated plants more than 30% below this weight) is on record as “almost no grains”. In addition, the total yield increase entry in the data set on wheat plants (one spray WS-CPD 120 μg mL^−1 at milky stage I, dry grain at harvest) is listed as “ca. 18%”. The solubility in “Solubility in water” was at least 400 mg/mL.

Source of the values: patent US9363996B2, “Compositions and method for blocking ethylene response in field crops using 3-(cy-clopropyl-l-enyl)-propanoic salt” (Yissum Research Development Company of the Hebrew …, priority 2009, dated 2016).
